From ChEMBL document CHEMBL1201862, “PubChem BioAssay data set” (2004)
“And” between values parts separate entries of the source, which are not always exact repeats. Identical values can stand only once. The source made the active and inactive calls.

Key:
[1] = target: fMet-Leu-Phe receptor (Homo sapiens, UniProt P21462); test: FPR ligands, dose response (AID 519); type: functional
[2] = target: T1, Caspase-6 (Homo sapiens, UniProt P55212); test: human caspase-6 inhibitors, dose response, biochemical, VEID-R110 fluorescence, cherry-pick (AID 720632)
T1 sequence (P55212 whole entry): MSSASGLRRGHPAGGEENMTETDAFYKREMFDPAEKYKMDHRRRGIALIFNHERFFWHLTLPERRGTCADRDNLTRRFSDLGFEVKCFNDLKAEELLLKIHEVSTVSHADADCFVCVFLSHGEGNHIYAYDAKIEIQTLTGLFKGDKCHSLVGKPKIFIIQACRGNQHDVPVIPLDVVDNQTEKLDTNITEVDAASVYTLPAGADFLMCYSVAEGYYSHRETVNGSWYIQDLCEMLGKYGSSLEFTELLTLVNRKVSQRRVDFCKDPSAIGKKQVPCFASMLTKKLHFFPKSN

[3] = target: DNA dC->dU-editing enzyme APOBEC-3G (Homo sapiens, UniProt Q9HC16); type: functional;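 note: Dose-response counterscreen measuring inhibition of APOBEC3G DNA deaminase activity, run while confirming APOBEC3A inhibitors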
[4] = target: DNA dC->dU-editing enzyme APOBEC-3A (Homo sapiens, UniProt P31941); test: Dose Response confirmation of small molecule APOBEC3A DNA Deaminase Inhibitors via a fluorescence-based single-stranded DNA deaminase assay. [Related pubchem assays (depositor defined):AID493011, AID493024]; type: functional
[5] = target: Protein Tat (Human immunodeficiency virus type 1 group M subtype B (isolate HXB2)(HIV-1), UniProt P04608); type: functional;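 note: tat binding to TAR RNA read out by fluorescence polarization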
[6] = THP-1 cell cytotoxicity, dose response, cytotoxicity control for Vif-APOBEC3G degradation inhibitor project, THP-1 cells (AID 1117359); type: functional; settings: Human immunodeficiency virus 1, THP-1
[7] = target: Caspase-8 (Homo sapiens, UniProt Q14790); test: caspase-8 inhibition counter-screen, dose response, selectivity assay for caspase-6 inhibitor project, biochemical, Z-IETD-R110 fluorescence, cherry-picked samples (AID 743294)
[8] = HEK293T cell cytotoxicity, dose response, cytotoxicity control for HIV Vif inhibitor project, cherry-picks (AID 652208); type: functional, cell-based
[9] = system: Vero; test: cells; type: functional; settings: Chlorocebus sabaeus
[10] = target: Arf-GAP with SH3 domain, ANK repeat and PH domain-containing protein 1 (Homo sapiens, UniProt Q9ULH1); type: functional;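 note: biochemical fluorescence polarization dose–response screen measuring inhibition of ASAP1; ASAP1 GAP domain stimulating GTP hydrolysis by truncated human ARF1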
[11] = target: ADP-ribosylation factor GTPase-activating protein 1 (Rattus norvegicus, UniProt Q62848); test: Fluorescence polarization-based biochemical high throughput dose response screening assay to identify inhibitors of ADP-ribosylation factor GTPase activating protein 1 (ARFGAP1).; type: functional
[12] = target: T2, Estrogen receptor (Homo sapiens, UniProt P03372);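 note: potency for inhibiting coactivator peptide recruitment to the receptor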
T2 sequence (P03372 whole entry): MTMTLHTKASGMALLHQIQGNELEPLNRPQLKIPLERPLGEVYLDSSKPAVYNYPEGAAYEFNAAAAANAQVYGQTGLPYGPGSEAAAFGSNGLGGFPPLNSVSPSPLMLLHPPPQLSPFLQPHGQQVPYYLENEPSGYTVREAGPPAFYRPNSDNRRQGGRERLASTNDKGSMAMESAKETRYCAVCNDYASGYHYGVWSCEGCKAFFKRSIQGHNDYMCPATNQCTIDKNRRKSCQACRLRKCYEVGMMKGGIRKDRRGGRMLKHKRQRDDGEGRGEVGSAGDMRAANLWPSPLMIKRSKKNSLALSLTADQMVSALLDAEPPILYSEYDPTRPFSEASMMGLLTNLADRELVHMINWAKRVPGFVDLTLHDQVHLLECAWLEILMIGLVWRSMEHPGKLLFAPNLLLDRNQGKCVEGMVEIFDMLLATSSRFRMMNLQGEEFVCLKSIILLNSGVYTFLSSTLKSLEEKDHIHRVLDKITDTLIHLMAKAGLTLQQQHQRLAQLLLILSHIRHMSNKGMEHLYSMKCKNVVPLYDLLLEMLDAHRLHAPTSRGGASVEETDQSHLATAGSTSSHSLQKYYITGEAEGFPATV

[13] = target: Photoreceptor-specific nuclear receptor (Homo sapiens, UniProt Q9Y5X4); type: functional, cell-based;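 note: CHO-S cells with Gal4-NCOR and VP16-NR2E3 two-hybrid luciferase reporter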
[14] = target: Albumin (Bos taurus, UniProt P02769); test: Counterscreen for inhibitors of T-cell receptor (TCR)-CD3 interaction: Fluorescence-based biochemical high throughput dose response assay to identify inhibitors of T-cell receptor (TCR)-CD3 interaction using a TAMRA-labeled BSA probe.; type: functional
[15] = target: Nonstructural protein 1 (Influenza A virus, UniProt Q194T2); type: functional, Influenza A virus (A/California/07/2009(H1N1))
[16] = BHK-21 cell cytotoxicity, cytotoxicity control for flavivirus guanylyltransferase probe project, secondary screen (AID 624078); type: functional
[17] = target: T3, Beta-2 adrenergic receptor (Homo sapiens, UniProt P07550); test: beta2AR agonists driving receptor internalization, dose response, cell-based, FAP fluorogen, flow cytometry, cherry pick 1 (AID 588763); type: functional
[18] = target: T3, Beta-2 adrenergic receptor; test: Dose response for HTS for Beta-2AR agonists via FAP method from Powderset2.; type: functional

T3 sequence (P07550 whole entry): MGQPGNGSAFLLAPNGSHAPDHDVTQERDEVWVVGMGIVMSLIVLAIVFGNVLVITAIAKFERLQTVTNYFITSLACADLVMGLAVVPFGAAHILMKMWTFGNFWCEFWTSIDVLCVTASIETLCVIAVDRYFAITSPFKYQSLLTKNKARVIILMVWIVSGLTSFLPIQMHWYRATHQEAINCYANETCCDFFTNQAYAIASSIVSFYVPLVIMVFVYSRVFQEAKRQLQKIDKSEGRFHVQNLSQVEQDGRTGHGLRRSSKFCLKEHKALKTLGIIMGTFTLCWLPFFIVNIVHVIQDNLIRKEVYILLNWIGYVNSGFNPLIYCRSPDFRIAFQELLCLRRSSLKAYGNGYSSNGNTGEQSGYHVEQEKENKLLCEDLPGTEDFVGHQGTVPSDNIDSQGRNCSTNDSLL
Chain of Nonstructural protein 1 (Q194T2 whole entry): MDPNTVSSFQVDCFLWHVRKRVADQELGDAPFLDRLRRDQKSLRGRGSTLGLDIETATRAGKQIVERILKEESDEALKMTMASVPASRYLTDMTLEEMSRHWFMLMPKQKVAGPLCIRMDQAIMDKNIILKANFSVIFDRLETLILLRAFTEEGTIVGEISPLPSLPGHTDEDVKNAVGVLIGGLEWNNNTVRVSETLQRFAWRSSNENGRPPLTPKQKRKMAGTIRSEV
Chain of Caspase-8 (Q14790 217-374 limits assumed): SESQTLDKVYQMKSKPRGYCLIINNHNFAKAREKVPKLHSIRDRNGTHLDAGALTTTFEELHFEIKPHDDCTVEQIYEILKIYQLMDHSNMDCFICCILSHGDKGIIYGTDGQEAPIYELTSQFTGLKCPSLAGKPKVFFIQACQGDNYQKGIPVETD
Chain of Caspase-8 (Q14790 385-479 limits assumed): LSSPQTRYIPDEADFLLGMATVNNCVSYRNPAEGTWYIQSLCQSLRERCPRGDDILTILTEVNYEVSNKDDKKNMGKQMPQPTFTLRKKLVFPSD
Chain of fMet-Leu-Phe receptor (P21462 whole entry): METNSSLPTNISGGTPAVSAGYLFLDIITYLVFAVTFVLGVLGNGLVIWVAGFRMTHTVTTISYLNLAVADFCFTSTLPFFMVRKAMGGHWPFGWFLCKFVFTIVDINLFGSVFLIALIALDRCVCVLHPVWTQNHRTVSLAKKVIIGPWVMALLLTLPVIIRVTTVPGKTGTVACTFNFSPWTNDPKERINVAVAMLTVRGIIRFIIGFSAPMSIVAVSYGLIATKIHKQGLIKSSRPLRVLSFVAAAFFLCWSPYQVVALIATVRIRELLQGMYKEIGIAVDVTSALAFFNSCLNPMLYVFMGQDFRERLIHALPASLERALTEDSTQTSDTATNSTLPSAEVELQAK
Chain of Arf-GAP with SH3 domain, ANK repeat and PH domain-containing protein 1 (Q9ULH1 whole entry, the tested form may be a part): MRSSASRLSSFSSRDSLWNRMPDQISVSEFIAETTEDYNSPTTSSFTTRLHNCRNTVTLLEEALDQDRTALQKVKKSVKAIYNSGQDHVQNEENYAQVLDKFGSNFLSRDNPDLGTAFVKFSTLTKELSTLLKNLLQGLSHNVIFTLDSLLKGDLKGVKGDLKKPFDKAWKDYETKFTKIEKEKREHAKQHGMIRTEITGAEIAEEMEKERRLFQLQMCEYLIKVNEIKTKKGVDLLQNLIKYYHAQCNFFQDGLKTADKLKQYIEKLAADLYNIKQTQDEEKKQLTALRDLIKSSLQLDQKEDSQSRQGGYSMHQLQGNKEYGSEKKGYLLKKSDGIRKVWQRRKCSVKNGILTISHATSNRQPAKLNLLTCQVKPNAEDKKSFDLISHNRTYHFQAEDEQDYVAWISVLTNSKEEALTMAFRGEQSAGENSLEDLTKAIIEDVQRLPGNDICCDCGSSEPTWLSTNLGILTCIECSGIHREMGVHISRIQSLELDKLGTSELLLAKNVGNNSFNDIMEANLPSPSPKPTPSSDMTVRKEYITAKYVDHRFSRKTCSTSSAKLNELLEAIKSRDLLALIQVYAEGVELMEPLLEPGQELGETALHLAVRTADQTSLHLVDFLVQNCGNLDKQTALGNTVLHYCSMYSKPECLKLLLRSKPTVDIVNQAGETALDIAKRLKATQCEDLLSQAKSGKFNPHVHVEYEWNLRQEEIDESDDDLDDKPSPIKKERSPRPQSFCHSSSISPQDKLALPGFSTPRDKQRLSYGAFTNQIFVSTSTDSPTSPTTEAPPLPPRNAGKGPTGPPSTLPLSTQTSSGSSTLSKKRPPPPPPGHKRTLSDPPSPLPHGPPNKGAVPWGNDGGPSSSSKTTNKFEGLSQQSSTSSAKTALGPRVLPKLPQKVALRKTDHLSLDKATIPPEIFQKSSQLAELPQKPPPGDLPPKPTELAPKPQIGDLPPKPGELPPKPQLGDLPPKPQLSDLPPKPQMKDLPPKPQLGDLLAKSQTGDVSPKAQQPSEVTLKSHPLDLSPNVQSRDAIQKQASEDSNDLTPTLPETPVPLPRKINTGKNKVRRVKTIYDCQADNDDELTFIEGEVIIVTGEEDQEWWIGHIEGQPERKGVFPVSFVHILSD
Chain of ADP-ribosylation factor GTPase-activating protein 1 (Q62848 whole entry): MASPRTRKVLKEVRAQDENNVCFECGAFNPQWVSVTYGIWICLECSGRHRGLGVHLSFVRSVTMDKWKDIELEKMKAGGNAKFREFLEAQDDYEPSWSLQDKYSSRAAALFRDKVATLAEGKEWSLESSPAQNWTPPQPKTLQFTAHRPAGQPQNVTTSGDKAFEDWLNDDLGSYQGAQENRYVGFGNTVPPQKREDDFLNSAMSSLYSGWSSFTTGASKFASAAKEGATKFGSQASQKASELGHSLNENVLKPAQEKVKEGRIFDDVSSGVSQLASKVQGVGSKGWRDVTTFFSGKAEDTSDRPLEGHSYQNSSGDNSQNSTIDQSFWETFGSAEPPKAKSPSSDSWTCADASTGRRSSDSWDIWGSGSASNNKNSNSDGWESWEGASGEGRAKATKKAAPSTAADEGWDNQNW
Chain of DNA dC->dU-editing enzyme APOBEC-3A (P31941 whole entry): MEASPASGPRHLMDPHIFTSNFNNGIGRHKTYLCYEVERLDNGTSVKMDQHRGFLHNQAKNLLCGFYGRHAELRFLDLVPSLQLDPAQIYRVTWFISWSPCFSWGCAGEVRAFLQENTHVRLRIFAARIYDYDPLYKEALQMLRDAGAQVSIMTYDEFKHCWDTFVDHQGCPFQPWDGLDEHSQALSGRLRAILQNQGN
Chain of Photoreceptor-specific nuclear receptor (Q9Y5X4 whole entry, the tested form may be a part): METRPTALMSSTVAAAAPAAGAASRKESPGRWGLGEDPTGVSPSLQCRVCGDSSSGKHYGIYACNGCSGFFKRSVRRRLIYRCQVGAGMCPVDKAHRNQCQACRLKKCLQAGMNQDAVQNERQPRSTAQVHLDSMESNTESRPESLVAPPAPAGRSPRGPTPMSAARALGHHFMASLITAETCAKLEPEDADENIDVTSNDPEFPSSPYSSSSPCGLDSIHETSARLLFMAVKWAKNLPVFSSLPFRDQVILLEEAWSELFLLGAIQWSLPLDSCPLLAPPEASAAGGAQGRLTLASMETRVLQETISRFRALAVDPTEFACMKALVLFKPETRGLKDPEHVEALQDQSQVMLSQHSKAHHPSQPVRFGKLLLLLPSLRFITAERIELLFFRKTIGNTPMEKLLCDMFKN
Chain of Albumin (P02769 whole entry): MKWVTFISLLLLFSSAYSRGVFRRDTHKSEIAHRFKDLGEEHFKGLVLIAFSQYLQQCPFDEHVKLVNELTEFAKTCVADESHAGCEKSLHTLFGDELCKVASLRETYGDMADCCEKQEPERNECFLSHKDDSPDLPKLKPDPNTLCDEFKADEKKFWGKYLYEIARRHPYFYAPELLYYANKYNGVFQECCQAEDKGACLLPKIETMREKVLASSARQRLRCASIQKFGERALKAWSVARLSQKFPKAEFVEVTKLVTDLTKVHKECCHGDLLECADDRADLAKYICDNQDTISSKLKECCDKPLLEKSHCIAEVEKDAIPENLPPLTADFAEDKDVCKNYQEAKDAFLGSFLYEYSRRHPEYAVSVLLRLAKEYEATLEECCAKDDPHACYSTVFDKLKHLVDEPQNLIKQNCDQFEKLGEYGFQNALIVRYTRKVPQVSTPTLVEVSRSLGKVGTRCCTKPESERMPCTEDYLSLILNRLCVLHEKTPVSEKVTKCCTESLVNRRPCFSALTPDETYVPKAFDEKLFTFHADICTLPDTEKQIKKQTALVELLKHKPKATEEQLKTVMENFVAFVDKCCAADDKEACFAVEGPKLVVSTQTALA
Chain of DNA dC->dU-editing enzyme APOBEC-3G (Q9HC16 whole entry): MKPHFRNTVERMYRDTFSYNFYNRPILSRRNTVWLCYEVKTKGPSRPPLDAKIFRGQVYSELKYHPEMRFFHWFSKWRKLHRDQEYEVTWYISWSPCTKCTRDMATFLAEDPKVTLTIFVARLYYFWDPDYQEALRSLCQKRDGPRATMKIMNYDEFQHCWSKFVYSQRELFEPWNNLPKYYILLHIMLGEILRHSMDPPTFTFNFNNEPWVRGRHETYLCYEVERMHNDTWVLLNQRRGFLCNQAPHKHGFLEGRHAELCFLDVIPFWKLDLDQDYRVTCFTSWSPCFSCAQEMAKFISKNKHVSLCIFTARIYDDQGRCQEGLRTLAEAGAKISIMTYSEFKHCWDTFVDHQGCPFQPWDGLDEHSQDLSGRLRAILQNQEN
Chain of Protein Tat (P04608 whole entry): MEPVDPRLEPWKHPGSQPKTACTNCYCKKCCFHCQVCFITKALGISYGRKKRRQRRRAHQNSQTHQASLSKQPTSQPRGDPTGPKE

## CCC(SC1=Nc2ccccc2C2=NC(CC(C)C)C(=O)N12)C(=O)Nc1ccc2c(c1)OCO2 (stereo not drawn)
[1]
  Ki: 37.6 µM (inactive)

## CN(CC(=O)Nc1c(Cl)cccc1Cl)C(=O)c1cccc(-n2cccc2)c1
[2]
  AC50: 1.88 µM (active)
[3]
  IC50: 34.6 µM (active)
[4]
  IC50: 13.9 µM (active)
[5]
  IC50: > 100 µM (active)
[6]
  CC50: > 40 µM (active)
[7]
  AC50: > 70 µM (inactive)

## CCn1cc(CN2CCCC(C(=O)Nc3cccc(-c4cc5ccccc5[nH]4)c3)C2)c(C)n1 (stereo not drawn)
[8]
  AC50: 40.9 µM (active)
[9]
  CC50: 24.9 µM (active)

## O=C(CSc1nnnn1-c1ccccc1)Nc1nsc(-c2ccc(Cl)cc2)n1
[10]
  IC50: 23.6 µM (inactive)
[11]
  IC50: 37.6 µM (inactive)
[12]
  IC50: 20.8 µM (active)
[13]
  IC50: 0.185 µM (active)

## Nc1nnc(CC(=O)N/N=C\c2cc([N+](=O)[O-])ccc2O)s1
[14]
  IC50: > 94.1 µM (inactive)
[15]
  IC50: 7.93 µM (active)

## COc1ccc(OC)c(S(=O)(=O)Nc2cc(SCC(=O)O)c(O)c3ccccc23)c1
[16]
  CC50: 9.6 µM (active)

## CCOC(=O)c1ccc(NC(=O)COc2ccc(S(=O)(=O)N3CCCC3)cc2)cc1
[17]
  EC50: 391 nM (active) and 162 nM (active)
[18]
  EC50: 1.37 µM (active)
